How the values were obtained:
souris sevrée [1] = experiment: Handling-induced convulsion score during alcohol withdrawal (Watson and Little 1995); format: in vivo; conditions: NMRI mice, 4 to 6 h after removal
Procedure: (§1) Des souris de souche NMRI (élevage Janvier), âgées de 5 à 6 semaines et de poids compris entre 25 et 30 g sont utilisées après 10 jours d'habituation aux conditions du laboratoire. Les conditions d'hébergement sont les suivantes : t° ambiante = 22 ± 2 °C; hygrométrie relative = 50 ± 20 %; cycle lumière/obscurité : 12 h/12 h (lumière de 7h00 à 19h00); nourriture A04 (SAFE, France) et boisson (eau du robinet) à volonté; dix animaux groupés par cage de polypropylène (435x435x194 mm).
(§2) Dans un premier temps, les animaux ont été familiarisés avec la nourriture liquide apportée sous un volume quotidien de 40 ml durant 7 à 10 jours. Celle-ci est constituée de lait chocolaté (Candia, France) auquel sont ajoutés 5 g/l d'un mélange de sels minéraux (ICN, France) et 3 g/l d'un mélange de vitamines (ICN, France).
(§3) Dans un deuxième temps, les animaux alcoolisés ont reçu la nourriture liquide contenant 3 % (p/v) d'éthanol (95°) durant 8 jours puis 4 % (p/v) d'éthanol (95°) durant 7 jours, tandis que les animaux témoins (non alcoolisés) ont eu accès à une nourriture avec l'équivalent calorique de dextrose (D-glucose, VWR, France).
(§4) Aucune nourriture solide, ni eau de boisson n'ont été proposées aux animaux durant cette période d'alcoolisation. Au terme des 15 jours d'alcoolisation (J15), le biberon avec l'alcool a été remplacé par un biberon de nourriture identique à celui des animaux témoins.
Cette mesure est effectuée selon le protocole décrit par Watson and Little (1995) J Pharmacol Exp Ther 272: 876-884. Brièvement, l'animal est soulevé par la queue et maintenu durant 30 secondes à 30 cm d'une lampe pourvue d'une ampoule de 60W puis subit une légère rotation (360°). Le comportement de chaque animal est évalué selon une échelle de cotation de 0 à 5, selon des critères figurant dans le Tableau 1 : Tableau 1 : Différents niveaux de cotation du comportement chez la souris selon Watson et Little (1995)
La mesure est réalisée avant l'expérience (conditions basales), 24 heures avant le retrait de l'éthanol puis le jour du retrait toutes les heures de 1 à 7 heures après le retrait du biberon de nourriture (7h00 - 8h00 le matin).
L'étifoxine (6.25 - 100 mg/kg) et le diazépam (1 et 4 mg/kg) sont administrés par voie intrapéritonéale (ip) 3h30 après le retrait du biberon. Une étude préliminaire a montré que les signes de sevrage étaient présents à ce temps (score ≥ 2). Les animaux contrôles reçoivent un volume équivalent de liquide véhicule.
Un score (de 0 à 5) est attribué pour chaque animal à chaque temps (de 1 à 7 h).
L'étifoxine (lots 219 et 350; Biocodex - France) est mis en suspension dans une solution saline (NaCl-0.9 %; p/v) de tween 80 à 1% (v/v) tandis que le diazépam (Valium®) est solubilisé dans une solution saline. Le volume d'administration par voie ip est de 0.1 ml/10 g. […]

souris sevrée [2] = experiment: Anxiety level during alcohol withdrawal: two-compartment (light/dark) box test (Crawley and Goodwin 1980, modified); format: in vivo; conditions: 8 h after ethanol removal, 5 min test, withdrawn NMRI mice
Procedure: as §1, §2, §3, §4
Le protocole décrit par Crawley and Goodwin (1980) Pharmacol Biochem Behav 1980; 13: 167-170 et légèrement modifié a été utilisé. Cette épreuve, reposant sur les tendances agoraphobiques et photophobiques des rongeurs, est classiquement utilisée pour mesurer leur niveau de peur ou d'anxiété.
Le dispositif est constitué d'une boîte en plexiglas à 2 compartiments (OSYS, Orga System; France) : l'un (18 x 27 x 30 cm) sombre et pourvu d'un couvercle, est éclairé à l'aide d'une lampe rouge (60W; 4 lux) tandis que le plus grand (27 x 27 x 30 cm), peint en blanc, est éclairé à l'aide d'une lampe de 60 W (400 lux). Une entrée (7.5 x 7.5 cm) située au centre de la cloison qui sépare les 2 compartiments, relie les 2 compartiments. Ceux-ci, équipés de cellules photoélectriques infra-rouges (4 dans le compartiment clair et 3 dans le compartiment sombre) reliées à un compteur digital, permettent la détection et la mesure des déplacements de l'animal. Celui-ci est déposé au centre du compartiment sombre face à l'ouverture. La latence d'entrée (en sec.) dans le compartiment clair, le nombre de déplacements dans le compartiment clair et le nombre de transition entre les 2 compartiments sombre et clair sont relevés au terme d'une épreuve de 5 min. La boîte est nettoyée avec de l'eau alcoolisée (10 %; v/v) pour éliminer toute trace odorante entre chaque passage. L'épreuve est réalisée 8 h après le retrait de la nourriture alcoolisée. Ce délai correspond au temps optimal pour la mesure du niveau d'anxiété chez l'animal soumis au sevrage alcoolique (Watson et Little (1994) Psychopharmacology (Berl) 114: 329-336).
L'étifoxine (6.25 - 50 mg/kg) ou le diazépam (1 mg/kg) est administré par voie ip 30 min avant l'épreuve. Les animaux contrôles reçoivent un volume équivalent de liquide véhicule.
L'étifoxine (lots 219 et 350; Biocodex - France) est mis en suspension dans une solution saline (NaCl-0.9 %; p/v) de tween 80 à 1% (v/v) tandis que le diazépam (Valium®) est solubilisé dans une solution saline. Le volume d'administration par voie ip est de 0.1 ml/10 g.
Les résultats sont exprimés par la valeur moyenne ± erreur standard à la moyenne (esm). Concernant la mesure de l'intensité des convulsions induites par la manipulation, l'analyse de variance (ANOVA) à 2 facteurs (temps x traitement) avec mesures répétées sur le facteur temps suivie de manière post-hoc par le test de Student Newman-Keuls, a été utilisée pour localiser les différences entre les groupes expérimentaux. […]

| Compound | score de convulsions (souris sevrée [1]; mainly at 4 mg/kg ip 3h30 after ethanol removal) | latence d'entrée dans le compartiment clair (souris sevrée [2]; 1 mg/kg ip 30 min before test) | nombre de déplacements dans le compartiment clair (souris sevrée [2]; 1 mg/kg ip 30 min before test) | nombre de transitions entre les 2 compartiments (souris sevrée [2]; 1 mg/kg ip 30 min before test) | score de convulsions (souris sevrée [1]; 12.5 mg/kg ip 3h30 after ethanol removal, vs alcoholised controls, p<0.05) | score de convulsions (souris sevrée [1]; 25 mg/kg ip 3h30 after ethanol removal, vs alcoholised controls, p<0.05) | score de convulsions (souris sevrée [1]; 100 mg/kg ip 3h30 after ethanol removal, vs alcoholised controls, p<0.05) | latence d'entrée dans le compartiment clair (souris sevrée [2]; 50 mg/kg ip 30 min before test) | nombre de déplacements dans le compartiment clair (souris sevrée [2]; 50 mg/kg ip 30 min before test) | nombre de transitions entre les 2 compartiments (souris sevrée [2]; 50 mg/kg ip 30 min before test) |
| --- | --- | --- | --- | --- | --- | --- | --- | --- | --- | --- |
| CN1C(=O)CN=C(c2ccccc2)c2cc(Cl)ccc21 [diazépam] | produit le même effet | atténue également de manière significative les effets du retrait de l'éthanol | atténue également de manière significative les effets du retrait de l'éthanol | atténue également de manière significative les effets du retrait de l'éthanol | – | – | – | – | – | – |
| CCNC1=Nc2ccc(Cl)cc2C(C)(c2ccccc2)O1 (stereo not shown) [étifoxine, chlorhydratede 6-chloro-2-éthylamino-4-méthyl-4-phényl-4H-[3,1]benzoxazine] | – | – | – | – | réduit significativement le score de convulsions | réduit significativement le score de convulsions | réduit significativement le score de convulsions | s'oppose aux effets du sevrage à l'éthanol sur ces 3 paramètres avec un effet statistiquement significatif | s'oppose aux effets du sevrage à l'éthanol sur ces 3 paramètres avec un effet statistiquement significatif | s'oppose aux effets du sevrage à l'éthanol sur ces 3 paramètres avec un effet statistiquement significatif |

Source: EP2179734B1, “Benzoxazine and dihydroquinazoline derivatives for use in the treatment of alcohol withdrawal syndrome” (Biocodex, priority 2008, dated 2010)
